13 compounds from ChEMBL document CHEMBL1141371, “Cytotoxic 5-alkylresorcinol metabolites from the leaves of Grevillea robusta” (J Nat Prod, 2007) can be followed below.

Assay [1] has as its system SF-268. Description: Cytotoxicity against human SF268 cells. In kind it is functional, cell-based.
In assay [2] the test system is NCI-H460. Description: Cytotoxicity against human NCI-H460 cells. In kind it is cell-based.
In assay [3] the test system is MCF7. Put plainly: Cytotoxicity against human MCF7 cells. In kind it is cell-based.

Turning to `Oc1cc2cc(c1)Oc1c(O)cc(cc1O)[C@H](O)CCCCCC/C=C/CCCCC2` [DEHYDROGRAVICYCLE], the concentration for half-maximal inhibition (IC50) (usually the point on the concentration scale where inhibition reaches its midpoint) came out at 31.3 µM in assay [1], 27.9 µM in assay [2] and 30 µM in assay [3].

Consider `COc1cc(O)cc(CCCCCCC/C=C/CCCCCc2cc(O)cc(O)c2)c1` [DEHYDROBISGRAVILLOL], for which the IC50 in assay [1] stood at 30.2 µM; in assay [2], 27 µM; in assay [3] it was 29.8 µM.

In the case of `COc1cc(O)cc2c1-c1c(O)cc(cc1O)CCCCCCC/C=C/CCCCC2`, the half-maximal inhibitory concentration (IC50) came to 29.1 µM in assay [1], 27.9 µM in assay [2] and 29.3 µM in assay [3].

Regarding `Oc1cc(O)cc(CCCCC/C=C/CCCCCCCc2cc(O)cc(O)c2)c1`, the IC50 in assay [1] came to 30.6 µM; in assay [2] it was 27.7 µM; in assay [3], 28.6 µM.

For the compound `CCCCCCCCCCCCCCCc1cc(O)cc(O)c1` [CARDOL], the half-inhibitory concentration (IC50) in assay [1] stood at 39.8 µM; in assay [2], 34.2 µM; in assay [3], 37 µM.

Take `Oc1cc(O)c2c(c1)CCCCC/C=C/CCCCCCCc1cc(O)c-2c(O)c1` [DEHYDROGRAVIPHANE]: the IC50 in assay [1] was 33.4 µM; in assay [2], 25.4 µM; in assay [3], 30.7 µM.

For `Oc1cc2cc(c1)Oc1c(O)cc(cc1O)CCCCCCC/C=C/CCCCC2` [DEHYDROROBUSTOL A], the values for the 50% inhibitory concentration (IC50) in assay [1], in assay [2] and in assay [3] were 33.1 µM, 28 µM and 31.8 µM, respectively.

For `COc1cc(O)cc(CCCCCCCCCCCCCCc2cc(O)cc(O)c2)c1` [BISGRAVILLOL], the IC50 in assay [1] was found to be 29.4 µM; in assay [2], 28.7 µM; in assay [3] it was 29.4 µM.

On to `Oc1cc2cc(c1)Oc1c(O)cc(cc1O)CCCCCCCCCCCCCC2` [ROBUSTOL], for which the half-inhibitory concentration (IC50) in assay [1] was found to be 32.7 µM; in assay [2], 24 µM; in assay [3] it was 32.4 µM.

With `Oc1cc(O)c2c(c1)CCCCCCCCCCCCCCc1cc(O)c-2c(O)c1`, the concentration for half-maximal inhibition (IC50) in assay [1] came to 27.7 µM; in assay [2], 22.8 µM; in assay [3], 28.6 µM.

Consider `Oc1cc2cc(c1)Oc1c(O)cc(cc1O)[C@H](O)CCCCCCCCCCCCC2`, for which the figures for the concentration for half-maximal inhibition (IC50) in assay [1], in assay [2] and in assay [3] were 32.1 µM, 27 µM and 30.6 µM, respectively.

`Oc1cc(O)cc(CCCCCCCCCCCCCCc2cc(O)cc(O)c2)c1` [BISNORSTRIATOL]: the IC50 in assay [1] worked out at 29.8 µM; in assay [2], 28.8 µM; in assay [3], 29.2 µM.

As for `COc1cc(O)cc2c1-c1c(O)cc(cc1O)CCCCCCCCCCCCCC2`, the IC50 in assay [1] was determined as 31.1 µM; in assay [2], 28.9 µM; in assay [3] it was 30.8 µM.
